Measurements from EP4768499A1, “MACROCYCLIC PEPTIDE COMPOUND HAVING CELL MEMBRANE PERMEABILITY AND METABOLIC STABILITY, AND LIBRARY CONTAINING SAME” (Chugai Seiyaku Kabushiki Kaisha, priority 2023, dated 2025).
Starred links: 1 amine or outer side, 2 acyl side, 3 side chain; linkers in the order of their positions; H or OH if unused. Positions of bridges follow the written chain, without caps; N, C: chain ends. Non-standard residues stand in square brackets, D forms with d. Residues, ends and D or L forms follow the SMILES beside them. *: point of attachment. NMedβ3hAla = C[C@H](CC(=O)[*:2])N(C)[*:1]; NMeF = CN[C@@H](Cc1ccccc1)C(=O)O; NMeGABA = CN(CCCC(=O)[*:2])[*:1]; NMeI = CC[C@H](C)[C@H](NC)C(=O)O; NMeT = CN[C@H](C(=O)O)[C@@H](C)O; hPhe = N[C@@H](CCc1ccccc1)C(=O)O; NMeβAla = CN(CCC(=O)[*:2])[*:1]; NMeD = CN[C@@H](CC(=O)O)C(=O)O; NMeL = CN[C@@H](CC(C)C)C(=O)O; NMeV = CN[C@H](C(=O)O)C(C)C; d(β3hA) = C[C@@H](N)CC(=O)O; NMeAbu = CC[C@H](NC)C(=O)O; NMeA = CN[C@@H](C)C(=O)O; Piperidide = C1CCN(*)CC1; dNMeA = CN[C@H](C)C(=O)O; Abu = CC[C@H](N)C(=O)O; βAla = NCCC(=O)O; Sar = CNCC(=O)O; tBu = CC(C)(C)*

Assays:
[1] = Metabolic stability test: liver microsomal stability assay; type: in vitro ADME, mouse; conditions: mouse liver microsomes 0.5 mg protein/mL, compound 1 µM; for microsomal CLint at 1 µM: male, pH 7.4, presence of NADPH, read-out: Mouse Hepatic Microsome CLh,int NADPH(+); for Mouse Hepatic Microsome CLh,int NADPH(-): absence of NADPH
[2] = Membrane permeability test using Caco-2 cells with preincubation; type: in vitro ADME; conditions: Caco-2; preincubation 20 to 24 hours; Apical FaSSIF/HBSS pH 6.0, Basal HBSS 4% BSA pH 7.4; 180 minutes; read-out: Caco2 Papp
Caco-2 cells = assay: as above; type: in vitro ADME; conditions: Caco-2 cells, preincubation 20 to 24 hours; apical FaSSIF/HBSS 1% DMSO pH 6.0, basal HBSS 4% BSA pH 7.4; basal sample at 180 minutes

| Compound | microsomal CLint at 1 µM [1] | Mouse Hepatic Microsome CLh,int NADPH(-) [1] | Papp A→B [2] | Caco2 Papp (10^-6 cm/sec) (Caco-2 cells) |
| --- | --- | --- | --- | --- |
| CC[C@H](C)[C@@H]1NC(=O)[C@H](C)N(C)C(=O)[C@H]([C@@H](C)O)N(C)C(=O)[C@H](CC(C)C)N(C)C(=O)[C@H](C(C)C)NC(=O)[C@H](Cc2ccccc2)N(C)C(=O)[C@H](Cc2ccccc2)N(C)C(=O)[C@H](C)NC(=O)[C@H](CC)N(C)C(=O)[C@H]([C@@H](C)CC)NC(=O)CCCN(C)C(=O)C[C@@H](C)NC(=O)[C@H](C(C)C)N(C)C1=O [pd132] (cyclo(A[NMeF][NMeF]V[NMeL][NMeT][NMeA]I[NMeV][d(β3hA)][NMeGABA]I[NMeAbu])) | 16.2 µL/min/mg | 7.7 µL/min/mg Protein | 0.36 ×10⁻⁶ cm/s | 0.36 10^-6 cm/sec |
| CC[C@H](C)[C@@H]1NC(=O)[C@H](C)N(C)C(=O)CCCN(C)C(=O)C[C@@H](C)NC(=O)[C@H](C(C)C)N(C)C(=O)[C@H](CC(C)C)N(C)C(=O)[C@H](C)N(C)C(=O)[C@H]([C@@H](C)O)N(C)C(=O)[C@H](CCc2ccccc2)NC(=O)[C@H](C(C)C)NC(=O)[C@H](Cc2ccccc2)N(C)C(=O)[C@H](CC)N(C)C(=O)[C@H](C)N(C)C(=O)[C@H](C(C)C)N(C)C1=O [pd059] (cyclo(I[NMeV][NMeA][NMeAbu][NMeF]V[hPhe][NMeT][NMeA][NMeL][NMeV][d(β3hA)][NMeGABA][NMeA])) | 12.7 µL/min/mg | 18.6 µL/min/mg Protein | 0.52 ×10⁻⁶ cm/s | 0.52 10^-6 cm/sec |
| CC[C@H](C)[C@@H]1NC(=O)[C@H](CC(C)C)N(C)C(=O)[C@H](C)N(C)C(=O)[C@H](C)NC(=O)C[C@@H](C)N(C)C(=O)[C@H](CC(C)C)N(C)C(=O)[C@H](C)N(C)C(=O)CN(C)C(=O)[C@H]([C@@H](C)O)NC(=O)[C@H](Cc2ccccc2)N(C)C(=O)[C@H](CC(C)C)N(C)C(=O)[C@H](C(C)C)NC(=O)[C@H]([C@@H](C)CC)N(C)C1=O [pd148] (cyclo(A[NMeA][NMeL]I[NMeI]V[NMeL][NMeF]T[Sar][NMeA][NMeL][NMedβ3hAla])) | 25.2 µL/min/mg | 16.8 µL/min/mg Protein | 0.12 ×10⁻⁶ cm/s | 0.12 10^-6 cm/sec |
| CC[C@@H]1NC(=O)CN(C)C(=O)[C@H]([C@@H](C)O)NC(=O)[C@H](CC(C)C)N(C)C(=O)[C@H](C(C)C)NC(=O)[C@H](Cc2ccccc2)N(C)C(=O)[C@H](C)N(C)C(=O)[C@@H](C)NC(=O)C[C@@H](C)NC(=O)[C@H](C(C)C)N(C)C(=O)[C@H](Cc2ccccc2)N(C)C(=O)[C@H](COC(C)(C)C)NC(=O)[C@H](CC(C)C)N(C)C1=O [pd128] (cyclo([Abu][NMeL]S(tBu)[NMeF][NMeV][d(β3hA)][dA][NMeA][NMeF]V[NMeL]T[Sar])) | 18 µL/min/mg | 11.3 µL/min/mg Protein | 0.05 ×10⁻⁶ cm/s | 0.05 10^-6 cm/sec |
| CC[C@H](C)[C@@H]1NC(=O)[C@@H]2CCCN2C(=O)[C@H](C(C)C)N(C)C(=O)[C@@H](C)N(C)C(=O)C[C@@H](C)NC(=O)[C@H](C(C)C)N(C)C(=O)[C@H](Cc2ccccc2)N(C)C(=O)[C@H](COC(C)(C)C)NC(=O)[C@H](CC(C)C)N(C)C(=O)[C@H](C)N(C)C(=O)[C@H](CC(C)C)N(C)C(=O)[C@H]([C@@H](C)O)NC(=O)[C@H](Cc2ccccc2)N(C)C1=O [pd136] (cyclo(I[NMeF]T[NMeL][NMeA][NMeL]S(tBu)[NMeF][NMeV][d(β3hA)][dNMeA][NMeV]P)) | 27.2 µL/min/mg | 28.8 µL/min/mg Protein | 0.53 ×10⁻⁶ cm/s | 0.53 10^-6 cm/sec |
| CC[C@@H]1NC(=O)[C@H](Cc2ccccc2)N(C)C(=O)[C@H]([C@@H](C)CC)NC(=O)[C@H](CC(C)C)N(C)C(=O)[C@H](CC(C)C)NC(=O)CCN(C)C(=O)C[C@@H](C(=O)N2CCCCC2)NC(=O)[C@H](C(C)C)NC(=O)[C@H](CC(C)C)N(C)C(=O)[C@H](C)N(C)C(=O)[C@H]([C@@H](C)O)NC(=O)[C@H](CC(C)C)N(C)C(=O)[C@H](COC(C)(C)C)NC(=O)[C@H](Cc2ccccc2)N(C)C1=O [pd021] ([NMeβAla]L[NMeL]I[NMeF][Abu][NMeF]S(tBu)[NMeL]T[NMeA][NMeL]VD-Piperidide; lactam N-14) | 37.1 µL/min/mg | 36.3 µL/min/mg Protein | 0.15 ×10⁻⁶ cm/s | 0.15 10^-6 cm/sec |

Next, values leading:

| microsomal CLint at 1 µM [1] | Mouse Hepatic Microsome CLh,int NADPH(-) [1] | Papp A→B [2] | Caco2 Papp (10^-6 cm/sec) (Caco-2 cells) | Compound |
| --- | --- | --- | --- | --- |
| 35.6 µL/min/mg | 29.2 µL/min/mg Protein | 0.16 ×10⁻⁶ cm/s | 0.16 10^-6 cm/sec | CC[C@H](C)[C@@H]1NC(=O)[C@H](Cc2ccccc2)N(C)C(=O)CN(C)C(=O)C[C@@H](C(=O)N2CCCCC2)NC(=O)[C@H]([C@@H](C)CC)N(C)C(=O)[C@H](COC(C)(C)C)NC(=O)[C@@H]2CCCN2C(=O)[C@H](CCc2ccccc2)NC(=O)[C@H](CC)N(C)C(=O)[C@H](CC(C)C)NC(=O)[C@H](CC(C)C)N(C)C(=O)[C@H]([C@@H](C)O)N(C)C(=O)[C@H](CC(C)C)N(C)C1=O [pd114] ([Sar][NMeF]I[NMeL][NMeT][NMeL]L[NMeAbu][hPhe]PS(tBu)[NMeI]D-Piperidide; lactam N-13) |
| 39.4 µL/min/mg | 36.1 µL/min/mg Protein | 0.11 ×10⁻⁶ cm/s | 0.11 10^-6 cm/sec | CC[C@@H]1NC(=O)[C@H](Cc2ccccc2)N(C)C(=O)[C@H](COC(C)(C)C)NC(=O)[C@H](CC(C)C)N(C)C(=O)[C@H](CC(C)C)NC(=O)[C@H](C)N(C)C(=O)C[C@@H](C(=O)N2CCCCC2)N(C)C(=O)[C@H](CC(C)C)N(C)C(=O)[C@H]([C@@H](C)CC)NC(=O)[C@H](Cc2ccccc2)N(C)C(=O)[C@H]([C@@H](C)O)N(C)C(=O)[C@H](CC)N(C)C(=O)[C@H](CC(C)C)NC(=O)CN(C)C1=O [pd091] ([NMeA]L[NMeL]S(tBu)[NMeF][Abu][Sar]L[NMeAbu][NMeT][NMeF]I[NMeL][NMeD]-Piperidide; lactam N-14) |
| 24.4 µL/min/mg | 16.4 µL/min/mg Protein | 0.2 ×10⁻⁶ cm/s | 0.20 10^-6 cm/sec | CC[C@H](C)[C@H]1C(=O)N[C@@H]([C@@H](C)O)C(=O)N(C)CC(=O)N(C)[C@@H](CC(C)C)C(=O)N[C@@H](CC(C)C)C(=O)N[C@H](C(=O)N2CCCCC2)CC(=O)N(C)[C@@H](C)C(=O)N[C@@H](CC(C)C)C(=O)N(C)[C@@H](CC(C)C)C(=O)N(C)CCC(=O)N(C)[C@@H](Cc2ccccc2)C(=O)NCCC(=O)N(C)[C@@H](Cc2ccccc2)C(=O)N1C [pd113] ([NMeA]L[NMeL][NMeβAla][NMeF][βAla][NMeF][NMeI]T[Sar][NMeL]LD-Piperidide; lactam N-13) |
| 12.5 µL/min/mg | 16.3 µL/min/mg Protein | 0.51 ×10⁻⁶ cm/s | 0.51 10^-6 cm/sec | CC[C@@H]1NC(=O)[C@H](CC(C)C)N(C)C(=O)[C@H]([C@@H](C)O)NC(=O)[C@H](C(C)C)N(C)C(=O)[C@H](Cc2ccccc2)N(C)C(=O)[C@@H](C(C)C)NC(=O)C[C@@H](C(=O)N2CCCCC2)N(C)C(=O)CN(C)C(=O)[C@H](Cc2ccccc2)N(C)C(=O)[C@H](C)N(C)C(=O)[C@H](COC(C)(C)C)NC(=O)[C@H](CC(C)C)N(C)C(=O)CN(C)C1=O [pd162] ([dV][NMeF][NMeV]T[NMeL][Abu][Sar][NMeL]S(tBu)[NMeA][NMeF][Sar][NMeD]-Piperidide; lactam N-13) |
